Experimental findings from US20240228504A1, “SUBSTITUTED TRICYCLIC AMIDES, ANALOGUES THEREOF, AND METHODS USING SAME” (Arbutus Biopharma Corporation, priority 2020, published 2024) are described below.

This assay concerns HBV rcDNA in HepDE19 cells. The assay is described as follows: HepDE19 assay with bDNA quantitation of HBV rcDNA. The format is cell-based, hepatitis B virus. As to conditions: Hepatitis B virus, HepDE19, HepDE19 assay, inhibition of rcDNA formation, bDNA quantitation; read-out: DE-19bDNA EC50.
On to `COc1nc2c(c3cc(F)c(F)cc13)[C@H](N(C)C(=O)c1cc3cc(F)c(F)cc3[nH]1)COC2` [Compound 241, (S)-N-(8,9-Difluoro-6-methoxy-1,4-dihydro-2H-pyrano[3,4-c]isoquinolin-1-yl)-5,6-difluoro-N-methyl-1H-indole-2-carboxamide], for which the EC50 (commonly the concentration that produces a half-maximal response) came out at 0.03 µM.
On to `CN(C(=O)c1cc2n(c1)CCCC2)[C@@H]1COCc2[nH]c(=O)c3cc(F)c(F)cc3c21` [Compound 242, (S)-N-(8,9-Difluoro-6-oxo-1,4,5,6-tetrahydro-2H-pyrano[3,4-c]isoquinolin-1-yl)-N-methyl-5,6,7,8-tetrahydroindolizine-2-carboxamide], for which the EC50 is 0.11 µM.
Then `CN(C(=O)c1ccc(Br)c(F)c1F)[C@@H]1COCc2[nH]c(=O)c3cc(F)c(F)cc3c21` [Compound 244, (S)-4-Bromo-N-(8,9-difluoro-6-oxo-1,4,5,6-tetrahydro-2H-pyrano[3,4-c]isoquinolin-1-yl)-2,3-difluoro-N-methylbenzamide], with 0.08 µM; and `CN(C(=O)c1cc(F)c(Br)cc1F)[C@@H]1COCc2[nH]c(=O)c3cc(F)c(F)cc3c21` [Compound 245, (S)-4-Bromo-N-(8,9-difluoro-6-oxo-1,4,5,6-tetrahydro-2H-pyrano[3,4-c]isoquinolin-1-yl)-2,5-difluoro-N-methylbenzamide], with 0.17 µM.
As for `CN(C(=O)c1c(F)cc(Br)cc1F)[C@@H]1COCc2[nH]c(=O)c3cc(F)c(F)cc3c21` [Compound 246, (S)-4-Bromo-N-(8,9-difluoro-6-oxo-1,4,5,6-tetrahydro-2H-pyrano[3,4-c]isoquinolin-1-yl)-2,6-difluoro-N-methylbenzamide], the EC50 is 1.96 µM.
With `CN(C(=O)c1ccc(C(F)(F)F)c(=O)[nH]1)[C@@H]1COCc2[nH]c(=O)c3cc(F)c(F)cc3c21` [Compound 247, (S)-N-(8,9-Difluoro-6-oxo-1,4,5,6-tetrahydro-2H-pyrano[3,4-c]isoquinolin-1-yl)-N-methyl-6-oxo-5-(trifluoromethyl)-1,6-dihydropyridine-2-carboxamide], the EC50 was 3.87 µM.
Take `CN(C(=O)c1ccc2ccccn12)[C@@H]1COCc2[nH]c(=O)c3cc(F)c(F)cc3c21` [Compound 248, (S)-N-(8,9-Difluoro-6-oxo-1,4,5,6-tetrahydro-2H-pyrano[3,4-c]isoquinolin-1-yl)-N-methylindolizine-3-carboxamide]: the 50% effective concentration (EC50) was 5.38 µM.
For `CN(C(=O)c1ccc(-c2ccc(F)cc2)cc1)[C@@H]1COCc2[nH]c(=O)c3cc(F)c(F)cc3c21` [Compound 250, (S)-N-(8,9-Difluoro-6-oxo-1,4,5,6-tetrahydro-2H-pyrano[3,4-c]isoquinolin-1-yl)-4′-fluoro-N-methyl-[1,1′-biphenyl]-4-carboxamide] the value was 8.1 µM; for `CN(C(=O)c1cc2cc(C(F)(F)F)ncc2[nH]1)[C@@H]1COCc2[nH]c(=O)c3cc(F)c(F)cc3c21` [Compound 251, (S)-N-(8,9-difluoro-6-oxo-1,4,5,6-tetrahydro-2H-pyrano[3,4-c]isoquinolin-1-yl)-N-methyl-5-(trifluoromethyl)-1H-pyrrolo[2,3-c]pyridine-2-carboxamide], 0.23 µM; for `CN(C(=O)C(F)(F)c1cccc(Br)c1)[C@@H]1COCc2[nH]c(=O)c3cc(F)c(F)cc3c21` [Compound 252, (S)-2-(3-Bromophenyl)-N-(8,9-difluoro-6-oxo-1,4,5,6-tetrahydro-2H-pyrano[3,4-c]isoquinolin-1-yl)-2,2-difluoro-N-methylacetamide], 7.7 µM.
In the case of `CN(C(=O)C(F)(F)c1ccc(Br)cc1)[C@@H]1COCc2[nH]c(=O)c3cc(F)c(F)cc3c21` [Compound 253, (S)-2-(4-Bromophenyl)-N-(8,9-difluoro-6-oxo-1,4,5,6-tetrahydro-2H-pyrano[3,4-c]isoquinolin-1-yl)-2,2-difluoro-N-methylacetamide], the half-maximal effective concentration (EC50) came out at 8 µM.
Then `CN(C(=O)c1cc2c(C(F)F)c(F)ccc2[nH]1)[C@@H]1COCc2[nH]c(=O)c3cc(F)c(F)cc3c21` [Compound 254, (S)-N-(8,9-Difluoro-6-oxo-1,4,5,6-tetrahydro-2H-pyrano[3,4-c]isoquinolin-1-yl)-4-(difluoromethyl)-5-fluoro-N-methyl-1H-indole-2-carboxamide], with 0.01 µM; and `CN(C(=O)c1ccn2ccccc12)[C@@H]1COCc2[nH]c(=O)c3cc(F)c(F)cc3c21` [Compound 261, (S)-N-(8,9-Difluoro-6-oxo-1,4,5,6-tetrahydro-2H-pyrano[3,4-c]isoquinolin-1-yl)-N-methylindolizine-1-carboxamide], with 6.4 µM; and `CN(C(=O)c1ccc(-c2ccc(F)cc2)c(F)c1)[C@@H]1COCc2[nH]c(=O)c3cc(F)c(F)cc3c21` [Compound 262, (S)-N-(8,9-Difluoro-6-oxo-1,4,5,6-tetrahydro-2H-pyrano[3,4-c]isoquinolin-1-yl)-2,4′-difluoro-N-methyl-[1,1′-biphenyl]-4-carboxamide], with 17.2 µM.
Consider `CN(C(=O)c1cc(-c2ccc(F)cc2)on1)[C@@H]1COCc2[nH]c(=O)c3cc(F)c(F)cc3c21` [Compound 263, (S)-N-(8,9-Difluoro-6-oxo-1,4,5,6-tetrahydro-2H-pyrano[3,4-c]isoquinolin-1-yl)-5-(4-fluorophenyl)-N-methylisoxazole-3-carboxamide], for which the EC50 was determined as 14.7 µM.
Regarding `CN(C(=O)c1cc2cccc(C(F)F)n2c1)[C@@H]1COCc2[nH]c(=O)c3cc(F)c(F)cc3c21` [Compound 266, (S)-N-(8,9-Difluoro-6-oxo-1,4,5,6-tetrahydro-2H-pyrano[3,4-c]isoquinolin-1-yl)-5-(difluoromethyl)-N-methylindolizine-2-carboxamide], the EC50 is 0.02 µM.
With `CN(C(=O)c1cc2nc(Br)ccc2[nH]1)[C@@H]1COCc2[nH]c(=O)c3cc(F)c(F)cc3c21` [Compound 268, (S)-5-Bromo-N-(8,9-difluoro-6-oxo-1,4,5,6-tetrahydro-2H-pyrano[3,4-c]isoquinolin-1-yl)-N-methyl-1H-pyrrolo[3,2-b]pyridine-2-carboxamide], the EC50 amounted to 1.8 µM.
For `CN(C(=O)C1Cc2ccccc21)[C@@H]1COCc2[nH]c(=O)c3cc(F)c(F)cc3c21` (stereo partly drawn) [Compound 269, N-((S)-8,9-Difluoro-6-oxo-1,4,5,6-tetrahydro-2H-pyrano[3,4-c]isoquinolin-1-yl)-N-methylbicyclo[4.2.0]octa-1(6),2,4-triene-7-carboxamide] the value was 18.6 µM; for `CN(C(=O)C1(O)Cc2ccccc2C1)[C@@H]1COCc2[nH]c(=O)c3cc(F)c(F)cc3c21` [Compound 275, (S)-N-(8,9-Difluoro-6-oxo-1,4,5,6-tetrahydro-2H-pyrano[3,4-c]isoquinolin-1-yl)-2-hydroxy-N-methyl-2,3-dihydro-1H-indene-2-carboxamide], 3.84 µM.
For `CN(C(=O)C1(O)Cc2cc(F)c(F)cc2C1)[C@@H]1COCc2[nH]c(=O)c3cc(F)c(F)cc3c21` [Compound 276, (S)-N-(8,9-Difluoro-6-oxo-1,4,5,6-tetrahydro-2H-pyrano[3,4-c]isoquinolin-1-yl)-5,6-difluoro-2-hydroxy-N-methyl-2,3-dihydro-1H-indene-2-carboxamide], the EC50 was 1.95 µM.
On to `Cc1cc2ccc(C(=O)N(C)[C@@H]3COCc4[nH]c(=O)c5cc(F)c(F)cc5c43)cn2c1` [Compound 277, (S)-N-(8,9-Difluoro-6-oxo-1,4,5,6-tetrahydro-2H-pyrano[3,4-c]isoquinolin-1-yl)-N,2-dimethylindolizine-6-carboxamide], for which the EC50 was found to be 0.42 µM.
On to `CN(C(=O)c1cc2sccc2[nH]1)[C@@H]1COCc2[nH]c(=O)c3cc(F)c(F)cc3c21` [Compound 278, (S)-N-(8,9-Difluoro-6-oxo-1,4,5,6-tetrahydro-2H-pyrano[3,4-c]isoquinolin-1-yl)-N-methyl-4H-thieno[3,2-b]pyrrole-5-carboxamide], for which the EC50 was 0.02 µM.
For `CN(C(=O)C1Cc2ccc(F)cc21)[C@@H]1COCc2[nH]c(=O)c3cc(F)c(F)cc3c21` (stereo partly drawn) [Compound 279, N-((S)-8,9-Difluoro-6-oxo-1,4,5,6-tetrahydro-2H-pyrano[3,4-c]isoquinolin-1-yl)-4-fluoro-N-methylbicyclo[4.2.0]octa-1(6),2,4-triene-7-carboxamide] the value was 9.5 µM; for `CN(C(=O)c1cc2cc(F)c(F)cc2[nH]1)[C@@H]1COCc2nc(OCCN)c3cc(F)c(F)cc3c21` [Compound 280, (S)-N-(6-(2-aminoethoxy)-8,9-difluoro-1,4-dihydro-2H-pyrano[3,4-c]isoquinolin-1-yl)-5,6-difluoro-N-methyl-1H-indole-2-carboxamide], 0.02 µM.
Take `CN(C(=O)C1CN(c2ccsc2)C1)[C@@H]1COCc2[nH]c(=O)c3cc(F)c(F)cc3c21` [Compound 282, (S)-N-(8,9-Difluoro-6-oxo-1,4,5,6-tetrahydro-2H-pyrano[3,4-c]isoquinolin-1-yl)-N-methyl-1-(thiophen-3-yl)azetidine-3-carboxamide]: the EC50 was found to be 0.29 µM.
Take `CN(C(=O)c1ccc(-c2cccc(F)c2)cc1)[C@@H]1COCc2[nH]c(=O)c3cc(F)c(F)cc3c21` [Compound 283, (S)-N-(8,9-Difluoro-6-oxo-1,4,5,6-tetrahydro-2H-pyrano[3,4-c]isoquinolin-1-yl)-3′-fluoro-N-methyl-[1,1′-biphenyl]-4-carboxamide]: the EC50 is 4.7 µM.
For `CN(C(=O)C1CN(c2cscc2Br)C1)[C@@H]1COCc2[nH]c(=O)c3cc(F)c(F)cc3c21` [Compound 284, (S)-1-(4-Bromothiophen-3-yl)-N-(8,9-difluoro-6-oxo-1,4,5,6-tetrahydro-2H-pyrano[3,4-c]isoquinolin-1-yl)-N-methylazetidine-3-carboxamide] the value was 0.05 µM.
On to `CN(C(=O)c1ccc(-c2ccccc2F)cc1)[C@@H]1COCc2[nH]c(=O)c3cc(F)c(F)cc3c21` [Compound 285, (S)-N-(8,9-Difluoro-6-oxo-1,4,5,6-tetrahydro-2H-pyrano[3,4-c]isoquinolin-1-yl)-2′-fluoro-N-methyl-[1,1′-biphenyl]-4-carboxamide], for which the concentration giving a half-maximal response (EC50) is 19.7 µM.
